Measured values from PubChem BioAssay AID1963973 (Molecular Pharmacology Branch, DTP, NCI, 2024).

Tested on: 883617-216-R-J1-PDC tumor spheroids, viability
Test: Anticancer human tumor 883617-216-R-J1-PDC patient-derived bladder carcinoma cell line growth inhibition [PI3K]
Settings: spheroids with HUVEC and MSC; for IC50: curve of first compound; for viability, T/C: stronger effect = lower value; active = viability on the fitted dose curve at most 10% of control; inactive = the rest
Procedure, shortened: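 Viability of mixed-cell spheroids was determined after exposure to pairwise combinations, one partner being inavolisib, alpelisib, duvelisib or copanlisib. Highest tested concentration matched clinical Cmax where known and 10 microM where not, descending in half-log steps.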
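Note: spheroids exposed to agents for 7 days before the viability read.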

CC1(C)CCC(Nc2ncc(C(F)(F)F)c(-c3c[nH]c4c(P(C)(C)=O)c(C#N)ccc34)n2)CN1 (configuration not stated) + Cc1nc(NC(=O)N2CCCC2C(N)=O)sc1-c1ccnc(C(C)(C)C(F)(F)F)c1
active: viability, T/C (second compound 0.0316 µM, first compound 3.16 µM) 7.32% | viability, T/C (second compound 0.0316 µM, first compound 10 µM) 0.34% | viability, T/C (second compound 0.1 µM, first compound 3.16 µM) 5.12% | viability, T/C (second compound 0.1 µM, first compound 10 µM) 0.15% | viability, T/C (second compound 0.316 µM, first compound 3.16 µM) 4.57% | viability, T/C (second compound 0.316 µM, first compound 10 µM) 0.17% | viability, T/C (second compound 1 µM, first compound 3.16 µM) 3.08% | viability, T/C (second compound 1 µM, first compound 10 µM) 0.12% | viability, T/C (second compound 3.16 µM, first compound 0.316 µM) 8.82% | viability, T/C (second compound 3.16 µM, first compound 1 µM) 11.7% | viability, T/C (second compound 3.16 µM, first compound 3.16 µM) 1.63% | viability, T/C (second compound 3.16 µM, first compound 10 µM) 0.09% | viability, T/C (second compound 10 µM, first compound 0.0316 µM) 5.1% | viability, T/C (second compound 10 µM, first compound 0.1 µM) 4.07% | viability, T/C (second compound 10 µM, first compound 0.316 µM) 4.35% | viability, T/C (second compound 10 µM, first compound 1 µM) 3.57% | viability, T/C (second compound 10 µM, first compound 3.16 µM) 0.59% | viability, T/C (second compound 10 µM, first compound 10 µM) 0.16%
inactive: viability, T/C (second compound 0.0316 µM, first compound 0.0316 µM) 35% | viability, T/C (second compound 0.0316 µM, first compound 0.1 µM) 25.2% | viability, T/C (second compound 0.0316 µM, first compound 0.316 µM) 21.7% | viability, T/C (second compound 0.0316 µM, first compound 1 µM) 18.4% | viability, T/C (second compound 0.1 µM, first compound 0.0316 µM) 27.1% | viability, T/C (second compound 0.1 µM, first compound 0.1 µM) 23.6% | viability, T/C (second compound 0.1 µM, first compound 0.316 µM) 25.7% | viability, T/C (second compound 0.1 µM, first compound 1 µM) 20.1% | viability, T/C (second compound 0.316 µM, first compound 0.0316 µM) 23.2% | viability, T/C (second compound 0.316 µM, first compound 0.1 µM) 25.2% | viability, T/C (second compound 0.316 µM, first compound 0.316 µM) 23.2% | viability, T/C (second compound 0.316 µM, first compound 1 µM) 12.9% | viability, T/C (second compound 1 µM, first compound 0.0316 µM) 18.1% | viability, T/C (second compound 1 µM, first compound 0.1 µM) 18.6% | viability, T/C (second compound 1 µM, first compound 0.316 µM) 14.2% | viability, T/C (second compound 1 µM, first compound 1 µM) 19.3% | viability, T/C (second compound 3.16 µM, first compound 0.0316 µM) 11.7% | viability, T/C (second compound 3.16 µM, first compound 0.1 µM) 11.7%
< 31.6 nM: IC50 (second compound 0.0316 µM) | IC50 (second compound 0.1 µM) | IC50 (second compound 0.316 µM) | IC50 (second compound 1 µM) | IC50 (second compound 3.16 µM) | IC50 (second compound 10 µM)
